According to patent US20220089598A1, “INHIBITORS OF HUMAN IMMUNODEFICIENCY VIRUS REPLICATION” (VIIV HEALTHCARE UK (No. 5) LIMITED, priority 2018, published 2022):

How the values were obtained:
[1] = Compound cytotoxicity, XTT-based colorimetric assay; type: cell-based; settings: human; uninfected MT2 cells, day 4, XTT assay
Protocol: Compound cytotoxicity and the corresponding CC50 values were determined using the same protocol as described in the antiviral assay except that uninfected cells were used. Cytotoxicity was assessed on day 4 in uninfected MT2 cells by using a XTT (2,3-bis[2-Methoxy-4-nitro-5-sulfophenyl]-2H-tetrazolium-5-carboxyanilide inner salt)-based colorimetric assay (Sigma-Aldrich, St Louis, Mo.).

[2] = test system: recombinant NL4-3 virus (Renilla luciferase) in MT-2 cells; assay: HIV cell culture assay (antiviral activity, luciferase readout); type: cell-based; settings: Renilla, NL43
Protocol: HIV cell culture assay—MT-2 cells, 293T cells and the proviral DNA clone of NL4-3 virus were obtained from the NIH AIDS Research and Reference Reagent Program. MT-2 cells were propagated in RPMI 1640 media supplemented with 10% heat inactivated fetal bovine serum (FBS), 100 μg/ml penicillin G and up to 100 units/mL streptomycin. The 293T cells were propagated in DMEM media supplemented with 10% heat inactivated FBS, 100 μg/mL penicillin G and 100 μg/mL streptomycin. A recombinant NL4-3 proviral clone, in which a section of the nef gene was replaced with the Renilla luciferase gene, was used to make the reference virus used in these studies. The recombinant virus was prepared through transfection of the recombinant NL4-3 proviral clone into 293T cells using Transit-293 Transfection Reagent from Mirus Bio LLC (Madison, Wis.). Supernatent was harvested after 2-3 days and the amount of virus present was titered in MT-2 cells using luciferase enzyme activity as a marker by measuring luciferase enzyme activity. Luciferase was quantitated using the EnduRen Live Cell Substrate from Promega (Madison, Wis.). Antiviral activities of compounds toward the recombinant virus were quantified by measuring luciferase activity in MT-2 cells infected for 4-5 days with the recombinant virus in the presence of serial dilutions of the compound.
The 50% effective concentration (EC50) was calculated by using the exponential form of the median effect equation where (Fa)=1/[1+(ED50/drug conc.)m] (Johnson V A, Byington R T. Infectivity Assay. In Techniques in HIV Research. ed. Aldovini A, Walker B D. 71-76. New York: Stockton Press. 1990).

Structure (SMILES) | CC50 at 4 day [1] [nM] | EC50 [2] [nM]
COc1c(F)ccc(-c2ccc3c(=O)n(-c4ccc(Cl)c5c(NS(C)(=O)=O)nn(C)c45)c([C@H](Cc4cc(F)cc(F)c4)NC(=O)Cn4nc(C(F)F)c5c4C(F)(F)[C@@H]4C[C@H]54)nc3n2)c1F (atropisomer, axis not shown; (P)) [Example 26, N—((S)-1-((3P)-3-(4-chloro-1-methyl-3-(methylsulfonamido)-1H-indazol-7-yl)-7-(2,4-difluoro-3-methoxyphenyl)-4-oxo-3,4-dihydropyrido[2,3-d]pyrimidin-2-yl)-2-(3,5-difluorophenyl)ethyl)-2-((3bS,4aR)-3-(difluoromethyl)-5,5-difluoro-3b,4,4a,5-tetrahydro-1H-cyclopropa[3,4]cyclopenta[1,2-c]pyrazol-1-yl)acetamide] | > 100 | 0.062
Cn1nc(NS(C)(=O)=O)c2c(Cl)ccc(-n3c([C@H](Cc4cc(F)cc(F)c4)NC(=O)Cn4nc(C(F)F)c5c4C(F)(F)[C@@H]4C[C@H]54)nc4nc(-c5ccc(F)cc5)ccc4c3=O)c21 (atropisomer, axis not shown; (P)) [Example 18, N—((S)-1-((3P)-3-(4-chloro-1-methyl-3-(methylsulfonamido)-1H-indazol-7-yl)-7-(4-fluorophenyl)-4-oxo-3,4-dihydropyrido[2,3-d]pyrimidin-2-yl)-2-(3,5-difluorophenyl)ethyl)-2-((3bS,4aR)-3-(difluoromethyl)-5,5-difluoro-3b,4,4a,5-tetrahydro-1H-cyclopropa[3,4]cyclopenta[1,2-c]pyrazol-1-yl)acetamide] | > 100 | 0.036
Cn1nc(NS(C)(=O)=O)c2c(Cl)ccc(-n3c([C@H](Cc4cc(F)cc(F)c4)NC(=O)Cn4nc(C(F)F)c5c4C(F)(F)[C@@H]4C[C@H]54)nc4nc(-c5ccc(C(F)(F)F)cc5)ccc4c3=O)c21 (atropisomer, axis not shown; (P)) [Example 14, N—((S)-1-((3P)-3-(4-chloro-1-methyl-3-(methylsulfonamido)-1H-indazol-7-yl)-4-oxo-7-(4-(trifluoromethyl)phenyl)-3,4-dihydropyrido[2,3-d]pyrimidin-2-yl)-2-(3,5-difluorophenyl)ethyl)-2-((3bS,4aR)-3-(difluoromethyl)-5,5-difluoro-3b,4,4a,5-tetrahydro-1H-cyclopropa[3,4]cyclopenta[1,2-c]pyrazol-1-yl)acetamide] | > 100 | 0.084
Cn1nc(NS(C)(=O)=O)c2c(Cl)ccc(-n3c([C@H](Cc4cc(F)cc(F)c4)NC(=O)Cn4nc(C(F)F)c5c4C(F)(F)[C@@H]4C[C@H]54)nc4nc(-c5cccc(F)c5F)ccc4c3=O)c21 (atropisomer, axis not shown; (P)) [Example 4, N—((S)-1-((3P)-3-(4-chloro-1-methyl-3-(methylsulfonamido)-1H-indazol-7-yl)-7-(2,3-difluorophenyl)-4-oxo-3,4-dihydropyrido[2,3-d]pyrimidin-2-yl)-2-(3,5-difluorophenyl)ethyl)-2-((3bS,4aR)-3-(difluoromethyl)-5,5-difluoro-3b,4,4a,5-tetrahydro-1H-cyclopropa[3,4]cyclopenta[1,2-c]pyrazol-1-yl)acetamide] | > 100 | 0.092
Cn1nc(NS(C)(=O)=O)c2c(Cl)ccc(-n3c([C@H](Cc4cc(F)cc(F)c4)NC(=O)Cn4nc(C(F)(F)F)c5c4C(F)(F)[C@@H]4C[C@H]54)nc4nc(-c5ccccc5F)ccc4c3=O)c21 (atropisomer, axis not shown; (P)) [Example 17, N—((S)-1-((3P)-3-(4-chloro-1-methyl-3-(methylsulfonamido)-1H-indazol-7-yl)-7-(2-fluorophenyl)-4-oxo-3,4-dihydropyrido[2,3-d]pyrimidin-2-yl)-2-(3,5-difluorophenyl)ethyl)-2-((3bS,4aR)-5,5-difluoro-3-(trifluoromethyl)-3b,4,4a,5-tetrahydro-1H-cyclopropa[3,4]cyclopenta[1,2-c]pyrazol-1-yl)acetamide] | > 100 | 0.065
Cn1nc(NS(C)(=O)=O)c2c(Cl)ccc(-n3c([C@H](Cc4cc(F)cc(F)c4)NC(=O)Cn4nc(C(F)(F)F)c5c4C(F)(F)[C@@H]4C[C@H]54)nc4nc(-c5ccc(F)cc5F)ccc4c3=O)c21 (atropisomer, axis not shown; (P)) [Example 24, N—((S)-1-((3P)-3-(4-chloro-1-methyl-3-(methylsulfonamido)-1H-indazol-7-yl)-7-(2,4-difluorophenyl)-4-oxo-3,4-dihydropyrido[2,3-d]pyrimidin-2-yl)-2-(3,5-difluorophenyl)ethyl)-2-((3bS,4aR)-5,5-difluoro-3-(trifluoromethyl)-3b,4,4a,5-tetrahydro-1H-cyclopropa[3,4]cyclopenta[1,2-c]pyrazol-1-yl)acetamide] | > 500 | 0.067
Cn1nc(NS(C)(=O)=O)c2c(Cl)ccc(-n3c([C@H](Cc4cc(F)cc(F)c4)NC(=O)Cn4nc(C(F)F)c5c4C(F)(F)[C@@H]4C[C@H]54)nc4nc(-c5ccccc5F)ccc4c3=O)c21 (atropisomer, axis not shown; (P)) [Example 1, N—((S)-1-((3P)-3-(4-chloro-1-methyl-3-(methylsulfonamido)-1H-indazol-7-yl)-7-(2-fluorophenyl)-4-oxo-3,4-dihydropyrido[2,3-d]pyrimidin-2-yl)-2-(3,5-difluorophenyl)ethyl)-2-((3bS,4aR)-3-(difluoromethyl)-5,5-difluoro-3b,4,4a,5-tetrahydro-1H-cyclopropa[3,4]cyclopenta[1,2-c]pyrazol-1-yl)acetamide] | > 1000 | 0.06
Cn1nc(NS(C)(=O)=O)c2c(Cl)ccc(-n3c([C@H](Cc4cc(F)cc(F)c4)NC(=O)Cn4nc(C(F)F)c5c4C(F)(F)[C@@H]4C[C@H]54)nc4nc(-c5c(F)cc(F)cc5F)ccc4c3=O)c21 (atropisomer, axis not shown; (P)) [Example 28, N—((S)-1-((3P)-3-(4-chloro-1-methyl-3-(methylsulfonamido)-1H-indazol-7-yl)-4-oxo-7-(2,4,6-trifluorophenyl)-3,4-dihydropyrido[2,3-d]pyrimidin-2-yl)-2-(3,5-difluorophenyl)ethyl)-2-((3bS,4aR)-3-(difluoromethyl)-5,5-difluoro-3b,4,4a,5-tetrahydro-1H-cyclopropa[3,4]cyclopenta[1,2-c]pyrazol-1-yl)acetamide] | > 100 | 0.032
COc1nc2nc([C@H](Cc3cc(F)cc(F)c3)NC(=O)Cn3nc(C(F)(F)F)c4c3C(F)(F)[C@@H]3C[C@H]43)n(-c3ccc(Cl)c4c(NS(C)(=O)=O)nn(C)c34)c(=O)c2cc1-c1ccccc1F (atropisomer, axis not shown; (P)) [Example 31, N—((S)-1-((3P)-3-(4-chloro-1-methyl-3-(methylsulfonamido)-1H-indazol-7-yl)-6-(2-fluorophenyl)-7-methoxy-4-oxo-3,4-dihydropyrido[2,3-d]pyrimidin-2-yl)-2-(3,5-difluorophenyl)ethyl)-2-((3bS,4aR)-5,5-difluoro-3-(trifluoromethyl)-3b,4,4a,5-tetrahydro-1H-cyclopropa[3,4]cyclopenta[1,2-c]pyrazol-1-yl)acetamide] | > 500 | 0.16
O=C(Cn1nc(C(F)(F)F)c2c1C(F)(F)[C@@H]1C[C@H]21)N[C@@H](Cc1cc(F)cc(F)c1)c1nc2nc(-c3ccccc3F)ccc2c(=O)n1-c1ccc(Cl)c2c(NS(=O)(=O)C3CC3)nn(CC(F)F)c12 (atropisomer, axis not shown; (P)) [Example 7, N—((S)-1-((3P)-3-(4-chloro-3-(cyclopropanesulfonamido)-1-(2,2-difluoroethyl)-1H-indazol-7-yl)-7-(2-fluorophenyl)-4-oxo-3,4-dihydropyrido[2,3-d]pyrimidin-2-yl)-2-(3,5-difluorophenyl)ethyl)-2-((3bS,4aR)-5,5-difluoro-3-(trifluoromethyl)-3b,4,4a,5-tetrahydro-1H-cyclopropa[3,4]cyclopenta[1,2-c]pyrazol-1-yl)acetamide] | > 100 | 0.056
Cn1nc(NS(C)(=O)=O)c2c(Cl)ccc(-n3c([C@H](Cc4cc(F)cc(F)c4)NC(=O)Cn4nc(C(F)F)c5c4C(F)(F)[C@@H]4C[C@H]54)nc4nc(-c5ccc(F)cc5CO)ccc4c3=O)c21 (atropisomer, axis not shown; (P)) [Example 16, N—((S)-1-((3P)-3-(4-chloro-1-methyl-3-(methylsulfonamido)-1H-indazol-7-yl)-7-(4-fluoro-2-(hydroxymethyl)phenyl)-4-oxo-3,4-dihydropyrido[2,3-d]pyrimidin-2-yl)-2-(3,5-difluorophenyl)ethyl)-2-((3bS,4aR)-3-(difluoromethyl)-5,5-difluoro-3b,4,4a,5-tetrahydro-1H-cyclopropa[3,4]cyclopenta[1,2-c]pyrazol-1-yl)acetamide] | > 500 | 0.056
